Experimental data from PubChem BioAssay AID1963869 (Molecular Pharmacology Branch, DTP, NCI, 2024).

Tested on: KRAS patient-derived spheroids with HUVEC/MSC, viability
Experiment: Anticancer human tumor 323965-272-R-J2-PDC patient-derived pancreatic carcinoma cell line growth inhibition [KRAS2]
Conditions: for IC50: curve of first compound; for viability, T/C: stronger effect = lower value
In short: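 Combination screen of spheroid viability in tumor-cell co-cultures with endothelial (HUVEC) and mesenchymal stem cell stroma. Each agent was tested in half-log dilutions, topping at clinical Cmax or at 10 microM without a known Cmax.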

[1] = second compound 0.1 µM, first compound 0.0316 µM
[2] = second compound 0.1 µM, first compound 0.1 µM
[3] = second compound 0.1 µM, first compound 0.316 µM
[4] = second compound 0.1 µM, first compound 1 µM
[5] = second compound 0.1 µM, first compound 3.16 µM
[6] = second compound 0.1 µM, first compound 10 µM
[7] = second compound 0.316 µM, first compound 0.0316 µM
[8] = second compound 0.316 µM, first compound 0.1 µM
[9] = second compound 0.316 µM, first compound 0.316 µM
[10] = second compound 0.316 µM, first compound 1 µM
[11] = second compound 0.316 µM, first compound 3.16 µM
[12] = second compound 0.316 µM, first compound 10 µM
[13] = second compound 1 µM, first compound 0.0316 µM
[14] = second compound 1 µM, first compound 0.1 µM
[15] = second compound 1 µM, first compound 0.316 µM
[16] = second compound 1 µM, first compound 1 µM
[17] = second compound 1 µM, first compound 3.16 µM
[18] = second compound 1 µM, first compound 10 µM
[19] = second compound 3.16 µM, first compound 0.0316 µM
[20] = second compound 3.16 µM, first compound 0.1 µM
[21] = second compound 3.16 µM, first compound 0.316 µM
[22] = second compound 3.16 µM, first compound 1 µM
[23] = second compound 3.16 µM, first compound 3.16 µM
[24] = second compound 3.16 µM, first compound 10 µM
[25] = second compound 10 µM, first compound 0.0316 µM
[26] = second compound 10 µM, first compound 0.1 µM
[27] = second compound 10 µM, first compound 0.316 µM
[28] = second compound 10 µM, first compound 1 µM
[29] = second compound 10 µM, first compound 3.16 µM
[30] = second compound 10 µM, first compound 10 µM
[31] = second compound 0.1 µM, first compound 0.01 µM
[32] = second compound 0.316 µM, first compound 0.01 µM
[33] = second compound 1 µM, first compound 0.01 µM
[34] = second compound 3.16 µM, first compound 0.01 µM
[35] = second compound 10 µM, first compound 0.01 µM
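Further: spheroids exposed to agents for 7 days.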
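Wherever viability, T/C is given: 100% = DMSO vehicle control viability.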

CC(C)NCC(C(=O)N1CCN(c2ncnc3c2C(C)CC3O)CC1)c1ccc(Cl)cc1 (stereo not given) + COc1cc2nc(C)nc(NC(C)c3cc(N)cc(C(F)(F)F)c3)c2cc1OC1CCOC1
IC50 (second compound 0.1 µM): 708 nM
IC50 (second compound 0.316 µM): 541 nM
IC50 (second compound 1 µM): 207 nM
IC50 (second compound 3.16 µM): 123 nM
IC50 (second compound 10 µM): 200 nM
viability, T/C [1]: 84.9%
viability, T/C [2]: 76%
viability, T/C [3]: 59.7%
viability, T/C [4]: 45.4%
viability, T/C [5]: 37.2%
viability, T/C [6]: 31.3%
viability, T/C [7]: 72.1%
viability, T/C [8]: 71.1%
viability, T/C [9]: 56.2%
viability, T/C [10]: 42.2%
viability, T/C [11]: 28%
viability, T/C [12]: 24.5%
viability, T/C [13]: 72.3%
viability, T/C [14]: 67.3%
viability, T/C [15]: 39.5%
viability, T/C [16]: 30.1%
viability, T/C [17]: 27.8%
viability, T/C [18]: 22.6%
viability, T/C [19]: 61.4%
viability, T/C [20]: 53%
viability, T/C [21]: 38.2%
viability, T/C [22]: 28.6%
viability, T/C [23]: 24.8%
viability, T/C [24]: 21.8%
viability, T/C [25]: 57%
viability, T/C [26]: 68.9%
viability, T/C [27]: 41.4%
viability, T/C [28]: 39%
viability, T/C [29]: 28.4%
viability, T/C [30]: 26.3%

CC1COCCN1c1cc(-c2ccnn2C)c2ccnc(-c3ccn[nH]3)c2n1 (stereo not given) + COc1cc2nc(C)nc(NC(C)c3cc(N)cc(C(F)(F)F)c3)c2cc1OC1CCOC1
IC50 (second compound 0.1 µM): 14.9 nM
IC50 (second compound 0.316 µM): 11 nM
IC50 (second compound 1 µM): 11.3 nM
IC50 (second compound 3.16 µM): 10.5 nM
IC50 (second compound 10 µM): < 10 nM
viability, T/C [31]: 62%
viability, T/C [1]: 26.8%
viability, T/C [2]: 16.5%
viability, T/C [3]: 12.8%
viability, T/C [4]: 11.5%
viability, T/C [5]: 12.2%
viability, T/C [32]: 52.5%
viability, T/C [7]: 24.2%
viability, T/C [8]: 13.1%
viability, T/C [9]: 12%
viability, T/C [10]: 11.6%
viability, T/C [11]: 11.6%
viability, T/C [33]: 53.5%
viability, T/C [13]: 21.4%
viability, T/C [14]: 12.4%
viability, T/C [15]: 10.3%
viability, T/C [16]: 10%
viability, T/C [17]: 11%
viability, T/C [34]: 51.4%
viability, T/C [19]: 19.5%
viability, T/C [20]: 9.99%
viability, T/C [21]: 9.71%
viability, T/C [22]: 9.06%
viability, T/C [23]: 9.91%
viability, T/C [35]: 41.9%
viability, T/C [25]: 20.9%
viability, T/C [26]: 9.39%
viability, T/C [27]: 9.15%
viability, T/C [28]: 7.92%
viability, T/C [29]: 6.55%

CCN1CCN(Cc2ccc(Nc3ncc(F)c(-c4cc(F)c5nc(C)n(C(C)C)c5c4)n3)nc2)CC1 + COc1cc2nc(C)nc(NC(C)c3cc(N)cc(C(F)(F)F)c3)c2cc1OC1CCOC1
IC50 (second compound 0.1 µM): 90.2 nM
IC50 (second compound 0.316 µM): 25.9 nM
IC50 (second compound 1 µM): 32.6 nM
IC50 (second compound 3.16 µM): 21.9 nM
IC50 (second compound 10 µM): 75.6 nM
viability, T/C (second compound 0.1 µM, first compound 0.00316 µM): 85.5%
viability, T/C [31]: 78.3%
viability, T/C [1]: 59.5%
viability, T/C [2]: 48.2%
viability, T/C [3]: 44.4%
viability, T/C [4]: 51.4%
viability, T/C (second compound 0.316 µM, first compound 0.00316 µM): 75.2%
viability, T/C [32]: 59%
viability, T/C [7]: 50%
viability, T/C [8]: 41.7%
viability, T/C [9]: 37.8%
viability, T/C [10]: 48.3%
viability, T/C (second compound 1 µM, first compound 0.00316 µM): 65.7%
viability, T/C [33]: 59.9%
viability, T/C [13]: 51.4%
viability, T/C [14]: 42.9%
viability, T/C [15]: 41%
viability, T/C [16]: 48.3%
viability, T/C (second compound 3.16 µM, first compound 0.00316 µM): 85.2%
viability, T/C [34]: 64%
viability, T/C [19]: 43.8%
viability, T/C [20]: 39.1%
viability, T/C [21]: 32.7%
viability, T/C [22]: 49.5%
viability, T/C (second compound 10 µM, first compound 0.00316 µM): 86.6%
viability, T/C [35]: 74%
viability, T/C [25]: 53.4%
viability, T/C [26]: 48.7%
viability, T/C [27]: 39.9%
viability, T/C [28]: 22.4%

CCNC(=O)CC1N=C(c2ccc(Cl)cc2)c2cc(OC)ccc2-n2c(C)nnc21 (stereo not given) + COc1cc2nc(C)nc(NC(C)c3cc(N)cc(C(F)(F)F)c3)c2cc1OC1CCOC1
IC50 (second compound 0.1 µM): 247 nM
IC50 (second compound 0.316 µM): 246 nM
IC50 (second compound 1 µM): 238 nM
IC50 (second compound 3.16 µM): 189 nM
IC50 (second compound 10 µM): 170 nM
viability, T/C [1]: 80.3%
viability, T/C [2]: 68.8%
viability, T/C [3]: 44.2%
viability, T/C [4]: 34.2%
viability, T/C [5]: 30.3%
viability, T/C [6]: 28.9%
viability, T/C [7]: 69.8%
viability, T/C [8]: 64.2%
viability, T/C [9]: 45.4%
viability, T/C [10]: 32.5%
viability, T/C [11]: 26.8%
viability, T/C [12]: 25.2%
viability, T/C [13]: 76.3%
viability, T/C [14]: 65.3%
viability, T/C [15]: 44.8%
viability, T/C [16]: 32%
viability, T/C [17]: 30.2%
viability, T/C [18]: 25.5%
viability, T/C [19]: 74.5%
viability, T/C [20]: 58.8%
viability, T/C [21]: 43.9%
viability, T/C [22]: 29.3%
viability, T/C [23]: 26.2%
viability, T/C [24]: 26.6%
viability, T/C [25]: 72.8%
viability, T/C [26]: 60.4%
viability, T/C [27]: 37.7%
viability, T/C [28]: 29%
viability, T/C [29]: 28%
viability, T/C [30]: 25.7%

Cn1nccc1Nc1nccc(-c2cc3c(s2)C(C)(C)N(CCN2CCOCC2)C3=O)n1 + COc1cc2nc(C)nc(NC(C)c3cc(N)cc(C(F)(F)F)c3)c2cc1OC1CCOC1
IC50 (second compound 0.1 µM): 343 nM
IC50 (second compound 0.316 µM): 258 nM
IC50 (second compound 1 µM): 188 nM
IC50 (second compound 3.16 µM): 324 nM
IC50 (second compound 10 µM): 358 nM
viability, T/C [1]: 70.7%
viability, T/C [2]: 76.1%
viability, T/C [3]: 50.3%
viability, T/C [4]: 38.7%
viability, T/C [5]: 30.8%
viability, T/C [6]: 29.9%
viability, T/C [7]: 75.3%
viability, T/C [8]: 61.8%
viability, T/C [9]: 48.1%
viability, T/C [10]: 34.8%
viability, T/C [11]: 30.6%
viability, T/C [12]: 26.1%
viability, T/C [13]: 65.9%
viability, T/C [14]: 57.8%
viability, T/C [15]: 43%
viability, T/C [16]: 35.6%
viability, T/C [17]: 30%
viability, T/C [18]: 27.4%
viability, T/C [19]: 70.7%
viability, T/C [20]: 68.1%
viability, T/C [21]: 46.3%
viability, T/C [22]: 38%
viability, T/C [23]: 29.1%
viability, T/C [24]: 22.6%
viability, T/C [25]: 75.5%
viability, T/C [26]: 66.9%
viability, T/C [27]: 51.7%
viability, T/C [28]: 36.7%
viability, T/C [29]: 22.7%
viability, T/C [30]: 24.9%
